In US20250296955A1, “PIN1 TARGETING COMPOUNDS AND DEGRADERS AND METHODS THEREOF” (The Regents of the University of California, priority 2024, published 2025):
Like-named read-outs stand apart in the source and are kept apart here. Where a SMILES comes first, the peptide text is derived from it. [ ]: non-standard residue; d: D form. The star is where a group is joined. Trp(5-OH) = N[C@@H](Cc1c[nH]c2ccc(O)cc12)C(=O)O; Phe(3-CN) = N#Cc1cccc(C[C@H](N)C(=O)O)c1; mTyr = N[C@@H](Cc1cccc(O)c1)C(=O)O; Pip = O=C(O)[C@@H]1CCCCN1; ClAc = O=C(CCl)*

Tests used:
[1] = target: T1, Pin1 (Homo sapiens, UniProt Q13526); experiment: Denaturation thermal shift assay (SYPRO Orange); format: binding; set-up: human Pin1 (residues 1-163); made in house; host or cells: E. coli BL21 (DE3) gold pLysS
Description: (§1) Important to the success of structure activity relations studies, robust biochemical, biophysical, and cell-based assays were implemented that enabled rapid and iterative evaluations of test Pin1 targeting agents. First, the DELFIA (Dissociation-enhanced lanthanide fluorescent immunoassay) assay platform was used to derive a robust heterogeneous assay to monitor the ability of test agents to displace the binding between Pin1 and the D-Peptide (Table 1), which was obtained in a biotinylated form (FIG. 10). […] Second, for an orthogonal biophysical assay denaturation thermal shift measurements were used. Pin1 was incubated with vehicle control (buffer with 1% DMSO), or test agents at protein: ligand ratio of 1:2 (20 μM protein-40 μM compound) for 10 min at 10° C. in the presence of the fluorescent dye SYPRO Orange. The samples were gradually exposed to increasing temperature (linear gradient from 10° C. to 95° C.), causing the protein to unfold. This unfolding allowed the fluorescent dye to bind to the protein's exposed hydrophobic residues, resulting in an increase in fluorescence. The thermal shift assay measures the protein's melting temperature (Tm), which is the temperature at which the protein denatures by 50%. Ligands can affect a protein target to thermal denaturation, which could manifest in a positive or negative shift in the protein denaturation temperature (ΔTm) (Bai N, Roder H, Dickson A, & Karanicolas J (2019) Scientific Reports 9; and Kranz J K & Schalk-Hihi C (2011) Fragment-Based Drug Design: Tools, Practical Approaches, and Examples 493:277-298). Using these two assays, a series of commercially available Pin1 inhibitors were profiled (Table 1). The non-covalent agent D-peptide resulted only moderately active, with an IC50 value of ˜3 μM that closely resembled the dissociation constant for this agent determined via isothermal titration calorimetry, and the ˜ 3 μM IC50 value as reported by a fluorescence polarization assay (Pinch B J, et al. (2020) Nat Chem Biol 16(9):979-987). […] (Table 1) was observed.
Thermal shift assays for Pin1 alone and in the presence of the inhibitors were obtained with a BioRad CFX Connect Real-Time PCR Detection System. Each data point was collected in quadruplicate. Each sample was prepared using buffer 50 mM Phosphate pH 7.5, 150 mM NaCl, 1% DMSO. Protein: ligand ratio used was 1:2 (20 μM protein-40 μM compound), and SYPRO Orange was used. Incubation of the Pin1 protein with the compounds was performed at 10° C. for 10 min. Samples were then heated from 10 to 95° C. with heating increments of 0.05° C., over 30 min. Fluorescence intensity was measured within the excitation/emission ranges 470-505/540-700 nm.

[2] = target: T1, Pin1; experiment: DELFIA displacement assay (displacement of biotinylated D-peptide from 6His-Pin1); format: binding; set-up: human Pin1 (residues 1-163); made in house; host or cells: E. coli BL21 (DE3) gold pLysS
Description: as §1
For the reported covalent agents such as sulfopin (Dubiella C, et al. (2021) Nat Chem Biol 17(9):954-963), BJP-07-017-3 (Pinch B J, et al. (2020) Nat Chem Biol 16(9):979-987), or KPT-6566 (Campaner E, et al. (2017) Nat Commun 8:15772), a 6-h pre-incubation period was included in the DELFIA assay to allow the covalent reaction to take place. For those agents, IC50 values that fell in the low nanomolar range were observed, consistent with what was reported previously for those compounds. […] To make those determinations in a broader panel of cancer cell lines three pancreatic cancer cell lines, BxPC3, MIA-PaCa-2, and PANC-1, the breast cancer cell line MDA-MB-231, the prostate cancer cell line PC3, and the non-small cell lung cancer cell line A549 were chosen. Each cell line represents various states of KRAS activating mutations (for example BxPC3 is wt-KRAS, while MIAPaCa2 carries the KRAS(G12C) mutation, and the PANC-1 the KRAS(G12D) (Miquel M, Zhang S, & Pilarsky C (2021) Front Cell Dev Biol 9:748631), A549 is KRAS(G12S) (Wang H, et al. (2019) EBioMedicine 49:106-117), MDA-MB-231 is KRAS(G13D) (Kim R K, et al. (2015) Exp Mol Med 47(1):e137), PC3 is wt-KRAS (Bouali S, et al. (2009) Oncol Rep 21(3):731-735). Pin1 protein levels in these cell lines were established using a specific Pin1 antibody in western blot analyses (FIG. 1A). The data confirmed that all these selected human cancer cell lines expressed a significant level of Pin1 (FIG. 1A).
Each well of 96-well streptavidin-coated plates (PerkinElmer) was incubated with 100 μL of 200 nM biotinylated D-peptide for 2 h and washed 3 times with a wash solution (PerkinElmer). Subsequently, a mixture containing Pin1, and a serial dilution of the test compounds were pre-incubated for 6 h. Eu-N1-labeled anti-6x-His antibody (PerkinElmer, 1:2000) was then added to this mixture and further incubated in the biotinylated D-peptide-bound plates for another 2 h. […]

[3] = Table 3, percentage in brackets after first ΔTm
[4] = Table 3, percentage in brackets after second ΔTm
[5] = Table 3, two peaks observed, likely incomplete complex formation
[6] = Table 3, single transition, ± SE of four replicates
[7] = running text and figure legends
[8] = Table 5, only one transition given
[9] = Table 2, ± SE of four replicates

T1 sequence (Q13526 whole entry, the tested form may be a part): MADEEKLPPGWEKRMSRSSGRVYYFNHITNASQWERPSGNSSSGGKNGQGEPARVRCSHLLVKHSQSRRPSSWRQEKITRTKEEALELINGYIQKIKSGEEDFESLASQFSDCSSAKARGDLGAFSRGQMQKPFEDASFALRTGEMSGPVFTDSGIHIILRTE

Which “share of first thermal shift peak” value [1, 3] does the source give for O=C(CCl)N[C@@H](Cc1ccccc1)C(=O)N1CCCC[C@H]1C(=O)NCCc1c[nH]c2ccc(F)cc12 [158G7] here?
Its value is 50%.

And the “share of second thermal shift peak” value [1, 4]?
Its value is 50%.

What about the “ΔTm (° C.), first of two peaks” value [1, 5] of the same compound?
Its value is −0.45 ± 0.15 °C.

And the “ΔTm (° C.), second printed of two peaks” value [1, 5]?
The value was −14.28 ± 0.28 °C.

What about the IC50 ([2]; Table 3, ± SD from duplicates) of the same compound?
Its IC50 is 1.04 ± 0.316 µM.

Which results are given for N#Cc1cccc(C[C@H](NC(=O)CCl)C(=O)N2CCCC[C@H]2C(=O)N[C@@H](Cc2c[nH]c3ccccc23)C(N)=O)c1 [158G3] (ClAc-[Phe(3-CN)]-[Pip]-Trp-NH2)?
ΔTm (° C.) [1, 6]: −10.06 ± 0.07 °C; IC50 ([2]; Table 3, ± SD from duplicates): 0.132 ± 0.021 µM

Which “ΔTm (° C.)” value [1, 6] does the source give for NC(=O)[C@H](Cc1c[nH]c2ccccc12)NC(=O)[C@@H]1CCCCN1C(=O)[C@H](Cc1c[nH]c2ccccc12)NC(=O)CCl [158G9] (HELM PEPTIDE1{[O=C(CCl)[*:2]].W.[O=C([C@@H]1CCCCN1[*:1])[*:2]].W.[am]}$$$$V2.0) here?
Its value is −9.42 ± 0.18 °C.

What about the IC50 ([2]; Table 3, ± SD from duplicates) of the same compound?
Its IC50 is 0.044 ± 0.008 µM.

What about the IC50 [2, 7] of the same compound?
Its IC50 is 0.043 µM.

For O=C(NCCc1c[nH]c2cc(Cl)cc(Cl)c12)[C@@H]1CCCCN1C(=O)[C@@H]1Cc2c([nH]c3ccccc23)CN1C(=O)CCl [164A5], which “share of first denaturation transition” value ([1]; Table 4, percentage in brackets after first ΔTm) is on record?
The value was 70%.

And the “share of second denaturation transition” value ([1]; Table 4, percentage in brackets after second ΔTm)?
Its value is 30%.

And the “ΔTm (° C.), first of two denaturation transitions” value ([1]; Table 4, two transitions observed, likely incomplete complex formation)?
Its value is “+0.66 ± 0.28 °C”.

What about the “ΔTm (° C.)” value [1, 8] of the same compound?
The value was “+0.66 ± 0.28 °C”.

And the IC50 ([2]; Table 4, ± SD from duplicates)?
The IC50 was 0.433 ± 0.065 µM.

For NC(=O)[C@H](Cc1c[nH]c2ccccc12)NC(=O)[C@@H]1CCCCN1C(=O)[C@H](Cc1ccccc1)NC(=O)CCl [158D10] (HELM PEPTIDE1{[O=C(CCl)[*:2]].F.[O=C([C@@H]1CCCCN1[*:1])[*:2]].W.[am]}$$$$V2.0), which “ΔTm (° C.)” value [1, 9] is on record?
The value was −10.40 ± 0.04 °C.

And the IC50 ([2]; Table 2, ± SD from duplicates)?
The IC50 was 0.146 ± 0.019 µM.

Which “ΔTm (° C.)” value [1, 6] does the source give for NC(=O)[C@H](Cc1c[nH]c2ccccc12)NC(=O)[C@@H]1CCCCN1C(=O)[C@H](Cc1cccc(O)c1)NC(=O)CCl [158D9] (ClAc-[mTyr]-[Pip]-Trp-NH2) here?
Its value is −8.28 ± 0.04 °C.

And the IC50 ([2]; Table 3, ± SD from duplicates)?
The IC50 was 0.034 ± 0.002 µM.

With CN(C(=O)CCl)[C@@H](Cc1ccccc1)C(=O)N1CCCC[C@H]1C(=O)N[C@@H](Cc1c[nH]c2ccccc12)C(N)=O [158D11] (HELM PEPTIDE1{[O=C(CCl)[*:2]].[meF].[O=C([C@@H]1CCCCN1[*:1])[*:2]].W.[am]}$$$$V2.0) as the compound, how does the “ΔTm (° C.)” value [1, 9] read?
The value was −10.66 ± 0.04 °C.

CN[C@@H](Cc1ccccc1)C(=O)N1CCCC[C@H]1C(=O)N[C@@H](Cc1c[nH]c2ccccc12)C(=O)N[C@@H](CCCNC(N)=O)C(N)=O [158B3] (HELM PEPTIDE1{[meF].[O=C([C@@H]1CCCCN1[*:1])[*:2]].W.[Cit].[am]}$$$$V2.0) was tested. Which “ΔTm (° C.)” value [1, 9] did it give?
Its value is 0.62 ± 0.04 °C.

And the ΔTm [1, 7]?
The ΔTm was “+0.62 °C”.

And the IC50 [2]?
The IC50 was greater than 10 µM.

What about the IC50 ([2]; Table 2, in μM) of the same compound?
The IC50 was greater than 10 µM.

How did the “share of first thermal shift peak” value [1, 3] turn out when O=C(CCl)N[C@@H](Cc1ccccc1)C(=O)N1CCCC[C@H]1C(=O)NCCc1c[nH]c2cc(Cl)cc(Cl)c12 [158G6] was run?
Its value is 70%.

What about the “share of second thermal shift peak” value [1, 4] of the same compound?
Its value is 30%.

What about the “ΔTm (° C.), first of two peaks” value [1, 5] of the same compound?
The value was “+1.04 ± 0.08 °C”.

And the “ΔTm (° C.)” value [1, 8]?
Its value is “+1.04 ± 0.08 °C”.

And the IC50 ([2]; Table 3, ± SD from duplicates)?
The IC50 was 0.327 ± 0.018 µM.

NC(=O)[C@H](Cc1c[nH]c2ccccc12)NC(=O)[C@@H]1CCCCN1C(=O)[C@H](Cc1c[nH]c2ccc(O)cc12)NC(=O)CCl [158H3] (ClAc-[Trp(5-OH)]-[Pip]-Trp-NH2) was tested. Which “ΔTm (° C.)” value ([1]; Table 4, single transition, ± SE of four replicates) did it give?
Its value is −6.56 ± 0.04 °C.

And the IC50 ([2]; Table 4, ± SD from duplicates)?
The IC50 was 0.056 ± 0.005 µM.

How did the “ΔTm (° C.)” value [1, 6] turn out when COc1ccc(C[C@H](NC(=O)CCl)C(=O)N2CCCC[C@H]2C(=O)N[C@@H](Cc2c[nH]c3ccccc23)C(N)=O)cc1 [158H5] (ClAc-Tyr(Me)-[Pip]-Trp-NH2) was run?
The value was −9.82 ± 0.08 °C.

What about the IC50 ([2]; Table 3, ± SD from duplicates) of the same compound?
Its IC50 is 0.0824 ± 0.0004 µM.
